The source made the active and inactive calls. The rule behind the calls is not given here.
Assays:
[1] = tested on: Rattus norvegicus; assay: Increase in pepsin concentration in Sprague-Dawley rat at 50 mg/kg, po administered 30 mins prior to pylorus ligation measured after 4 hrs relative to control; assay type: functional
[2] = tested on: Canis familiaris; assay: Antianxiety activity in po dosed dog assessed as ataxia administered as single dose measured up to 24 hrs; assay type: functional; settings: Canis lupus familiaris, read-out: MED
[3] = species on record: Rattus norvegicus; assay: animal or person; assay type: functional; settings: Charles River, route oral
Description: Antidiarrheal activity in Charles River rat assessed as inhibition of castor oil-induced diarrhea by measuring protected animals at 0.5 mg/kg, po administered 1 hr prior to castor oil challenge measured after 1 hr relative to vehicle-treated control

[4] = tested on: Felis catus; assay: Hypnotic activity in cat assessed as decrease in non-REM sleep time at 4 mg/kg administered orally through diet measured for 12 hrs by EEG analysis; assay type: functional; settings: route oral
[5] = tested on: Felis catus; assay: Hypnotic activity in cat assessed as increase in non-REM sleep time at 1 mg/kg administered orally through diet measured for 12 hrs by EEG analysis; assay type: functional; settings: route oral
[6] = tested on: Rhesus monkey; assay: Antianxiety activity in po dosed rhesus monkey assessed as antiagressive behavior measured every hour post dosing; assay type: functional; settings: Macaca mulatta, read-out: MED
[7] = Acute toxicity in po dosed mouse; assay type: organism-based; settings: in vivo
[8] = tested on: Rattus norvegicus; assay: Antianxiety activity in Long-Evans rat assessed as reduction in motor activity at 20 mg/kg, po after 2 hrs relative to vehicle-treated control; assay type: functional; set-up: scale not given: the % may be the effect or the level left
[9] = tested on: Rattus norvegicus; assay: Antipsychotic activity in rat assessed as reduction of methamphetamine-induced hyperactivity at 5 mg/kg, po administered prior to methamphetamine challenge relative to vehicle-treated control; assay type: functional; set-up: scale not given: the % may be the effect or the level left
[10] = tested on: Rattus norvegicus; assay: Antihypertensive activity in spontaneously hypertensive rat model assessed as reduction in blood pressure at 25 mg/kg, po after 3 hrs; assay type: functional; set-up: scale not given: the % may be the effect or the level left
[11] = tested on: Rattus norvegicus; assay: Antihypertensive activity in spontaneously hypertensive rat model assessed as reduction in blood pressure at 25 mg/kg, po after 24 hrs; assay type: functional; set-up: scale not given: the % may be the effect or the level left
[12] = tested on: Rattus norvegicus; assay: Antisecretory activity in Sprague-Dawley rat assessed as decrease in acidity at 50 mg/kg, po administered 30 mins prior to pylorus ligation measured after 4 hrs relative to control; assay type: functional; set-up: scale not given: the % may be the effect or the level left
[13] = tested on: Rattus norvegicus; assay: Antisecretory activity in Sprague-Dawley rat assessed as decrease in acid output at 50 mg/kg, po administered 30 mins prior to pylorus ligation measured after 4 hrs relative to control; assay type: functional; set-up: scale not given: the % may be the effect or the level left
[14] = tested on: Mus musculus; assay: Analgesic activity in po dosed mouse assessed as inhibition of acetic acid-induced writhing administered 30 mins prior to acetic acid challenge measured after 5 mins for 20 mins; assay type: functional
[15] = tested on: Mus musculus; assay: Antianxiety activity in albino BALB/cJ mouse assessed as reduction in footshock-induced fighting behavior at 10 mg/kg, po after 30 to 90 mins; assay type: functional; set-up: scale not given: the % may be the effect or the level left
[16] = tested on: Rattus norvegicus; assay: Antihypertensive activity in spontaneously hypertensive rat model assessed as reduction in blood pressure at 10 mg/kg, po after 24 hrs; assay type: functional; set-up: scale not given: the % may be the effect or the level left
[17] = tested on: Mus musculus; assay: Antidepressant activity in mouse assessed as potentiation of DOPA-induced effect at 5 mg/kg, po administered 4 hrs prior to DOPA challenge; assay type: functional, organism-based; set-up: dose 5 mg/kg
[18] = tested on: Mus musculus; assay: Anticonvulsant activity in po dosed mouse assessed as dose required to protect 80% of animal measured after 1 to 4 hrs by audiogenic seizure test; assay type: functional
[19] = tested on: Rattus norvegicus; assay: Antianxiety activity in Long-Evans rat assessed as reduction in motor activity at 5 mg/kg, po after 2 hrs relative to vehicle-treated control; assay type: functional; set-up: scale not given: the % may be the effect or the level left
[20] = tested on: Rattus norvegicus; assay: Increase in pepsin output in Sprague-Dawley rat at 50 mg/kg, po administered 30 mins prior to pylorus ligation measured after 4 hrs relative to control; assay type: functional
[21] = tested on: Rattus norvegicus; assay: Antihypertensive activity in spontaneously hypertensive rat model assessed as reduction in blood pressure at 10 mg/kg, po after 3 hrs; assay type: functional; set-up: scale not given: the % may be the effect or the level left
[22] = tested on: Felis catus; assay: Hypnotic activity in cat assessed as increase in total sleep time at 1 mg/kg administered orally through diet measured for 12 hrs by EEG analysis; assay type: functional; settings: route oral
[23] = tested on: Felis catus; assay: Hypnotic activity in cat assessed as increase in total sleep time at 4 mg/kg administered orally through diet measured for 12 hrs by EEG analysis; assay type: functional; settings: route oral
[24] = tested on: Rattus norvegicus; assay: Increase in volume in Sprague-Dawley rat at 50 mg/kg, po administered 30 mins prior to pylorus ligation measured after 4 hrs relative to control; assay type: functional
[25] = tested on: Rattus norvegicus; assay: Antipsychotic activity in rat assessed as reduction of methamphetamine-induced hyperactivity at 10 mg/kg, po administered prior to methamphetamine challenge relative to vehicle-treated control; assay type: functional; set-up: scale not given: the % may be the effect or the level left
[26] = tested on: Rattus norvegicus; assay: Analgesic activity in po dosed Sprague-Dawley rat after 15 to 90 mins by tail flick test; assay type: functional
[27] = tested on: Felis catus; assay: Hypnotic activity in cat assessed as increase in total sleep time at 0.5 mg/kg administered orally through diet measured for 12 hrs by EEG analysis; assay type: functional; settings: route oral
[28] = tested on: Felis catus; assay: Hypnotic activity in cat assessed as increase in non-REM sleep time at 0.5 mg/kg administered orally through diet measured for 12 hrs by EEG analysis; assay type: functional; settings: route oral
[29] = tested on: Rattus norvegicus; assay: Antianxiety activity in Long-Evans rat assessed as reduction in motor activity at 10 mg/kg, po after 2 hrs relative to vehicle-treated control; assay type: functional; set-up: scale not given: the % may be the effect or the level left
[30] = tested on: Mus musculus; assay: Increase in footshock-induced fighting behavior in albino BALB/cJ mouse at 5 mg/kg, po after 30 to 90 mins; assay type: functional
[31] = tested on: Rattus norvegicus; assay: Antipsychotic activity in rat assessed as reduction of methamphetamine-induced hyperactivity at 1 mg/kg, po administered prior to methamphetamine challenge relative to vehicle-treated control; assay type: functional; set-up: scale not given: the % may be the effect or the level left

CCCCCc1cc(O)c2c(c1)OC(C)(C)[C@@H]1CCC(C)=C[C@@H]21 [DRONABINOL]
Activity [1]: 8.2% | minimal effective dose [2]: 0.5 mg/kg | inhibition in vivo at 0.5 mg/kg [3]: 0% | Time [4]: -3 min | Time [5]: 1 min | minimal effective dose [6]: 1 mg/kg | LD50 [7]: ≥ 1000 mg/kg | Activity [8]: 72% | Activity [9]: 15% | Activity [10]: 39% | Activity [11]: 21% | Activity [12]: 7.5% | Activity [13]: 7.3% | ED50 [14]: 43 mg/kg | Activity [15]: 68% | Activity [16]: 8% | Activity [17]: Active | Activity [18]: 20 mg/kg | Activity [19]: 14% | Activity [20]: 8.9% | Activity [21]: 6% | Time [22]: 29 min | Time [23]: 17 min | Activity [24]: 0.7% | Activity [25]: 41%

C#CCN1CCC2=C(C1)c1c(O)cc(C(C)C(C)CCc3ccc(F)cc3)cc1OC2(C)C (configuration not stated)
ED50 [26]: 8.3 mg/kg | minimal effective dose [2]: 10 mg/kg | inhibition in vivo at 0.5 mg/kg [3]: 0% | LD50 [7]: ≥ 1000 mg/kg | Activity [9]: 53% | Time [27]: 58 min | Time [28]: 60 min | Activity [29]: 73% | Activity [30]: 30% | ED50 [14]: 4.4 mg/kg | Activity [31]: 23% | Activity [19]: 59%

Reference: ChEMBL document CHEMBL3272295, “Drugs derived from cannabinoids. 5. delta6a,10a-Tetrahydrocannabinol and heterocyclic analogs containing aromatic side chains” (J Med Chem, 1976)
